Laboratory results taken from ChEMBL document CHEMBL1268959, “Synthesis and pharmacological activity of 1,3,6-trisubstituted-4-oxo-1,4-dihydroquinoline-2-carboxylic acids as selective ET(A) antagonists” (Bioorg Med Chem Lett, 2010).
The source made the active and inactive calls. The calls are words filed in the database; no cut-off is given here.

How the values were obtained:
[1] = target: T1, Endothelin receptor type B (Homo sapiens, UniProt P24530); assay: Displacement of [125I]ET1 from human ETB receptor expressed in membranes
T1 sequence (P24530 whole entry): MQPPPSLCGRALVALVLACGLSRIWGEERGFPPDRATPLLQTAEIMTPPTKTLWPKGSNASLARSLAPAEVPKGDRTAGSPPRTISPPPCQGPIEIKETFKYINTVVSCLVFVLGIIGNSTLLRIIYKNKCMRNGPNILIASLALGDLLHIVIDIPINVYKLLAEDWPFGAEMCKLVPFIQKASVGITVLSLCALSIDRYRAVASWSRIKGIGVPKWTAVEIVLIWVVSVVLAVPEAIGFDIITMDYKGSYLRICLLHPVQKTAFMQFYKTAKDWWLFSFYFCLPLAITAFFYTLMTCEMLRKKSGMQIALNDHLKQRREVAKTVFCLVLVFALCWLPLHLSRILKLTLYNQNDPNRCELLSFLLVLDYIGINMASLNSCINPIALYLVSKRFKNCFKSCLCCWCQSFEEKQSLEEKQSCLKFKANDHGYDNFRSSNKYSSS

Mus musculus = species: Mus musculus; assay: Inhibition of LPS-induced preterm delivery in pregnant mouse model; format: functional, organism-based
[2] = Selectivity ratio, ratio of IC50 for ETB receptor to IC50 for ETA receptor
Hamster [3] = assay: Antiinflammatory activity against ET1-induced lung inflammation in hamster model assessed as reduction in bronchoalveolar lavage fluid leukocytes; format: functional, organism-based; details: Cricetinae
Hamster [4] = assay: Antiinflammatory activity against cigarette smoke-induced lung inflammation in hamster model assessed as reduction in bronchoalveolar lavage fluid leukocytes; format: functional, organism-based; details: Cricetinae
Hamster [5] = assay: Antiinflammatory activity against LPS-induced lung inflammation in hamster model assessed as reduction in bronchoalveolar lavage fluid leukocytes; format: functional, organism-based; details: Cricetinae
Endothelin-1 receptor = target: T2, Endothelin-1 receptor (Homo sapiens, UniProt P25101); assay: Displacement of [125I]ET1 from ETA receptor expressed in african green monkey CCL-81 cells monolayer; format: cell-based
T2 sequence (P25101 whole entry): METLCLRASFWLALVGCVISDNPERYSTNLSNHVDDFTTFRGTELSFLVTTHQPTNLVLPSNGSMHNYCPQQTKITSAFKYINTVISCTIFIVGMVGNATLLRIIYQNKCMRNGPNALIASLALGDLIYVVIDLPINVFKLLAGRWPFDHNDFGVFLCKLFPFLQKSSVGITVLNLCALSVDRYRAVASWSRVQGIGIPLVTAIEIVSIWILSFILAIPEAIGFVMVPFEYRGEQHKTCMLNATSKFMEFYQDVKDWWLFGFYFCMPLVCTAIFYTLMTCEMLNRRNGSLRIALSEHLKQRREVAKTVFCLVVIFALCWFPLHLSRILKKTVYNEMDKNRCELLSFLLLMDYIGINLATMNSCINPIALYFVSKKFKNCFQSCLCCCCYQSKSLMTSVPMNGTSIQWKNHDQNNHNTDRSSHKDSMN

| IC50 [1] [nM] | Ratio IC50 [2] | IC50 (Endothelin-1 receptor) [nM] | SMILES | inhibition (Mus musculus) | inhibition (Hamster [3]) | inhibition (Hamster [4]) | inhibition (Hamster [5]) |
| --- | --- | --- | --- | --- | --- | --- | --- |
| 15600 | 399 | 38.9 | CCc1cc2c(cc1Cn1c(C(=O)O)c(Cc3cccc(C(=O)O)c3)c(=O)c3cc(O)ccc31)OCO2 | Active | Active | Active | Active |
| 677 | 50 | 13.5 | CCc1cc2c(cc1Cn1c(C(=O)O)c(Cc3cccc(C(=O)O)c3)c(=O)c3cc(OC(C)C)ccc31)OCO2 | – | – | – | – |
| 571 | 827 | 0.69 | CCc1cc2c(cc1Cn1c(C(=O)O)c(Cc3cccc(C(=O)O)c3)c(=O)c3ccccc31)OCO2 | – | – | – | – |
| – | – | 24.8 | CC(C)C[C@@H]1NC(=O)[C@@H](C(C)C)NC(=O)[C@@H]2CCCN2C(=O)C(CC(=O)O)NC(=O)[C@@H](Cc2c[nH]c3ccccc23)NC1=O (single isomer, unassigned) [BQ-123] | – | – | – | – |
| 3120 | 473 | 6.6 | CCOc1ccc2c(c1)c(=O)c(Cc1cccc(C(=O)O)c1)c(C(=O)O)n2Cc1cc2c(cc1CC)OCO2 | – | – | – | – |
| 1450 | 5 | 285 | CCc1cc2c(cc1Cn1c(C(=O)O)c(Cc3cccc(C(=O)O)c3)c(=O)c3cc(OCC(=O)O)ccc31)OCO2 | – | – | – | – |
| – | – | 610 | CCCCCOc1ccc2c(c1)c(=O)c(Cc1cccc(C(=O)O)c1)c(C(=O)O)n2Cc1cc2c(cc1CC)OCO2 | – | – | – | – |
| 913 | 8300 | 0.11 | CCCOc1ccc2c(c1)c(=O)c(Cc1cccc(C(=O)O)c1)c(C(=O)O)n2Cc1cc2c(cc1CC)OCO2 | – | – | – | – |
| 1130 | 30 | 38.1 | C=CCOc1ccc2c(c1)c(=O)c(Cc1cccc(C(=O)O)c1)c(C(=O)O)n2Cc1cc2c(cc1CC)OCO2 | – | – | – | – |
| – | – | 116 | CCc1cc2c(cc1Cn1c(C(=O)O)c(Cc3cccc(C(=O)O)c3)c(=O)c3cc(OCC4CC4)ccc31)OCO2 | – | – | – | – |
| 1030 | 43 | 24.4 | CCc1cc2c(cc1Cn1c(C(=O)O)c(Cc3cccc(C(=O)O)c3)c(=O)c3cc(OCOC)ccc31)OCO2 | – | – | – | – |
| – | – | 9.9 | CCc1cc2c(cc1Cn1c(C(=O)O)c(Cc3cccc(C(=O)O)c3)c(=O)c3cc(OC(C)CC)ccc31)OCO2 (stereo unspecified) | – | – | – | – |
| 548 | 381 | 1.44 | CCCCOc1ccc2c(c1)c(=O)c(Cc1cccc(C(=O)O)c1)c(C(=O)O)n2Cc1cc2c(cc1CC)OCO2 | – | – | – | – |
| 1980 | 315 | 6.3 | CCc1cc2c(cc1Cn1c(C(=O)O)c(Cc3cccc(C(=O)O)c3)c(=O)c3cc(OCC(C)C)ccc31)OCO2 | – | – | – | – |
| 4390 | 593 | 7.4 | CCc1cc2c(cc1Cn1c(C(=O)O)c(Cc3cccc(C(=O)O)c3)c(=O)c3cc(OCCCO)ccc31)OCO2 | – | – | – | – |
